Laboratory results: patent publication US20220142159A1, “A METHOD AND COMPOSITION FOR INSECT REPELLENCY USING AVERSIVE AGENT” (UPL LTD, priority 2019, published 2022)

What was measured:
average person = details: cited from earlier work
[1] = in vivo; cited from earlier work
Nilgai, deer = assay: Observed repellence of vermin mammal species; format: in vivo; details: because of its bitterness

Q: For `CC[N+](CC)(CC(=O)Nc1c(C)cccc1C)Cc1ccccc1.O=C([O-])c1ccccc1` [Denatonium benzoate, phenylmethyl-[2-[(2,6-dimethylphenyl)amino]-2-oxoethyl]-diethylammonium benzoate], which “generally recognized bitter taste” value (average person; level of recognised bitter taste) is on record?
A: 50 ppb

Q: And the “can be detected by the average person” value (average person; taste detection level)?
A: 10 ppb

Q: What about the “human safety in clinical trials” value [1] of the same molecule?
A: extremely human safe

Q: And the “repellence of vermin mammals” value (Nilgai, deer)?
A: effectively repelled
